From patent US11591323B2, “Muscarinic agonists as non-steroidal and non-opioid analgesics and methods of use thereof” (Barry University, priority 2019, dated 2023)
Read-outs that look alike come from different tables or passages of the source.

Columns and labels:
[1] = test system: brain cortex (rich in M1); experiment: accumulation of IPX in dissipated rat brain cortex; format: cell-based; conditions: in words
Description: Effects of compounds 6A and 7A were then measured ex vivo in dissipated rat tissues (FIG. 5). Accumulation of IPX was measured in dissipated brain cortex (rich in M1 & M3), submaxillary gland (M1 & M3), and ventral tegmental area (M5). Native tissues express about 10-times less muscarinic receptors than CHO cell lines. Accumulation of cAMP was measured in cerebellum (M2) and striatum (M4).
Rat dissipated tissues: Suspension of dissipated tissues from rat brain cortex, cerebellum, striatum, ventral tegmental area (VTA) and submaxillary glands was prepared as described previously in supplementary methods. Adult 8-weeks old male Wistar rats were scarified by cervical dislocation in accordance with current legislative and guidelines under permission of Czech Ministry of Agriculture 16OZ23113/2017-17214. Tissues were dissected immediately. Submaxillary glands were minced by scissors. Tissues were dispersed by incubation for 15 min at 37° C. in KHB supplemented with trypsin and trituration every 5 min. Large undissipated parts were removed by cell mesh. […]
Measurements of the production of cAMP and inositol phosphates: Levels of second messengers cAMP and inositol phosphates were determined in radiochemical chromatography assays as described previously. […] Samples were applied to alumina columns (1.5 g of alumina per column), washed with 2 ml ammonium acetate (pH=7.0) and eluted from columns with 4 ml ammonium acetate and measured by liquid scintillation spectrometry. […] After separation of water and organic phases, 0.6 ml of water phase was applied to Dowex columns (1.5 g of Dowex per column), washed by 20 ml of 60 mM ammonium formate/5 mM sodium borate buffer and eluted from columns with 4 ml of 1M ammonium formate/0.1 formic acid buffer and measured by liquid scintillation spectrometry.
To exclude the possibility that the observed effects of compounds 6A and 7A are the result of overexpression in the heterologous system, functional response to the compounds was measured ex vivo in dissipated native rat tissues. […] Accumulation of cAMP was measured in M2-rich cerebellum and M4-rich striatum.

[2] = test system: rat aorta smooth muscle cells (mainly M2, lesser M3); experiment: cAMP level in primary culture of rat aorta smooth muscle cells; format: cell-based
Description: Effects of compounds 6A and 7A on both cAMP and IPX levels were also measured in primary cultures of rat aorta smooth muscle cells that express mainly M2 and to a lesser extent M3 receptors (FIG. 6). […] Receptor expression levels are far lower in tested native tissues than in transfected cell lines and vary among tissues, being highest in the striatum and lowest in the submaxillary gland. Relative expression levels of G-proteins are also known to vary among tissues and cell lines. Thus, it is great to see that the pharmacological profile of the new compounds is conserved despite these variations.
Cell culture and membrane preparation: Chinese hamster ovary (CHO) cells stably transfected with the genes of individual human variants of muscarinic receptors were purchased from Missouri S&T cDNA Resource Center (Rolla, Mo., USA). Fresh primary cell culture of smooth muscle cells (SMC) from rat aorta prepared as previously described was kindly provided by Dr. Lucie Bačáková. Primary culture of SMCs was grown to confluency in 75 cm^2 flasks in Dulbecco's modified Eagle's medium supplemented with 10% fetal bovine serum. Up to 6-times, 2 million of cells were sub-cultured. Cell cultures and crude membranes from CHO cells were prepared as described previously (Boulos et al., Chem Biol Drug Des 1-12, 2017). Cells were grown to confluency in 75 cm^2 flasks in Dulbecco's modified Eagle's medium supplemented with 10% fetal bovine serum and 2 million of cells were subcultured in 100 mm Petri dishes. Medium was supplemented with 5 mM butyrate for the last 24 hours of cultivation to increase receptor expression. When needed, cells were cultivated with pertussis toxin at a final concentration of 25 ng/ml for the 24 hours. Cells were detached by mild trypsinization on day 5 after subculture. Detached cells were washed twice in 50 ml of phosphate-buffered saline and 3 min centrifugation at 250×g. Washed cells were suspended in 20 ml of ice-cold incubation medium (100 mM NaCl, 20 mM Na-HEPES, 10 mM MgCl2, pH=7.4) supplemented with 10 mM EDTA and homogenized on ice by two 30 sec strokes using Polytron homogenizer (Ultra-Turrax; Janke & Kunkel GmbH & Co. KG, IKA-Labortechnik, Staufen, Germany) with a 30-sec pause between strokes. Cell homogenates were centrifuged for 30 min at 30,000×g. Supernatants were discarded, pellets suspended in fresh incubation medium, incubated on ice for 30 minutes and centrifuged again. Resulting membrane pellets were kept at −80° C. until assayed within 10 weeks at a maximum.
Measurements of the production of cAMP and inositol phosphates: Levels of second messengers cAMP and inositol phosphates were determined in radiochemical chromatography assays as described previously. To determine level of cAMP, cells in suspension were pre-incubated for 1 h with 0.4 μM [^3H]adenine, washed, and incubated for 10 min in the presence of isobutylmethylxanthine and 10 μM forskolin. […] Incubation was ended by addition of 0.2 ml of 2.5 M HCl to the samples. Samples were applied to alumina columns (1.5 g of alumina per column), washed with 2 ml ammonium acetate (pH=7.0) and eluted from columns with 4 ml ammonium acetate and measured by liquid scintillation spectrometry. […] For this purpose, new CHO cell lines stably expressing promiscuous G15 G-protein and M2 or M4 receptor were generated by transfection with pCMV/hygro vector and hygromycin selection. To determine the rate of formation of inositol phosphates IPX, suspended cells were pre-incubated with 0.1 μM [^3H]myo-inositol for 60 min, washed, and incubated with 10 mM LiCl for 15 min. […] The incubation was stopped by addition of 0.5 ml of chloroform methanol HCl mixture (2:1:0.1). […]

SMILES | accumulation of IPX [1] | Maximal inhibition of cAMP synthesis [2] | Maximal inhibition of cAMP synthesis ([2]; in words) | cAMP level ([2]; in words)
C1=CCN(Cc2cccs2)CC1.Cl [Compound 6A, 1-[(thiophen-2-yl)methyl]-1,2,3,6-tetrahydropyridin-1-ium chloride] | negligible increase in IPX | about 40% | the same as inhibition by carbachol | only inhibited cAMP synthesis
C[N+](C)(C)CCOC(N)=O [carbachol, reference compound] | profound accumulation of IPX | about 40% | – | transient decrease in cAMP level
C[N+]1(Cc2cccs2)CC=CCC1.[I-] (centres unmarked) [Compound 7A, 1-methyl-1-[(thiophen-2-yl)methyl]-1,2,3,6-tetrahydropyridin-1-ium iodide] | negligible increase in IPX | about 40% | the same as inhibition by carbachol | only inhibited cAMP synthesis
